Reference: patent publication US8506928B2, “Methods and compounds for targeting tissues” (The Regents of the University of California, priority 2007, dated 2013)
Residues, ends and D or L forms follow the SMILES beside them.

Assays:
[1] = Pre-administration of RES inhibitors before CRPPR-3 liposomes; assay type: in vivo, mice; conditions: for decrease of accumulation within the heart: 90 minute time point, pre-administration before CRPPR-3 liposomes; for ratio of radioactivity in the heart with and without inhibitors: well counts at 90 minutes after CRPPR-3 liposome injection
Protocol: Blank liposomes: blank liposomes (DPPC:DSPE-PEG2000=98:2 (mol/mol), with diameter 100 nm) with 300 μg lipids (12 mg/kg) in 100 μl saline were injected 15 minutes before the radiolabeled targeted liposomes. Polyinosinic acid (PI): PI (P4154), purchased from Sigma-Aldrich, was dissolved in 0.9% sterile injection saline at 2 mg/ml. A small amount of sodium hydroxide solution was added to dissolve PI powder and the pH of the PI solution was adjusted to 7.4 with HCl solution. 5 μl of PI solution (˜10 μg of PI, 0.4 mg/kg) was diluted with 100 μl saline and injected 1 minute before the injection of the radiolabeled targeted liposomes. Control animals received an equal volume of saline solution. Clodronate liposomes: Clodronate liposomes were prepared as in [21]. 100 μl of clodronate liposomes (˜0.05 mg, 2 mg/kg) were injected 24 hours in advance of the administration of radiolabeled targeted liposomes. Control animals received an equal volume of saline solution. Free CRPPR Peptide (SEQ ID NO: 1): 700 μg of CRPPR peptides (SEQ ID NO: 1) (25 mg/kg) were injected 1 minute before the administration of radiolabeled targeted liposomes. Control animals received an equal volume of injection saline solution.

heart endothelium = conditions: described in [4]; cited from earlier work

| Compound | decrease of accumulation within the heart [1] [%] | ratio of radioactivity in the heart with and without inhibitors [1] | target-to-muscle ratio, phage targeting (heart endothelium) |
| --- | --- | --- | --- |
| Polyinosinic acid [PI] | 41 | 0.59 |  |
| NC(N)=NCCC[C@H](NC(=O)[C@@H]1CCCN1C(=O)[C@@H]1CCCN1C(=O)[C@H](CCCN=C(N)N)NC(=O)[C@@H](N)CS)C(=O)O [CRPPR] (H-CRPPR-OH) | ~19 | 0.81 | greater than 300 fold |
